The nature of data set [1]: In vivo pharmacokinetics in male CD-1 mice, i.v. More on the design: species or system mouse. The conditions noted are these: 5 mg/kg i.v. As for the experimental part: Pharmacokinetic evaluation of sorangicin A in mice was carried out by Pharmacelsus GmbH (Saarbrücken, Germany). All mouse experiments were approved by and conducted in accordance with the regulations of the local Animal Welfare authorities. Nine adult male CD-1 mice (purchased from Janvier Labs, Le Genest-Saint-Isle, France) were used. Animals were housed in a separate temperature-controlled room (20–24 °C) and maintained in a 12 h light/12 h dark cycle. […] Retrobulbar blood samples were collected from three animals at 0.083, 0.25, 0.5, 1, 3 and 7 h after i.v. administration (two time points/ animal). At each of the designated time points 100 µL blood was collected from the eye into lithium heparin tubes. Quantification of sorangicin A in the generated plasma was performed by LC-MS/MS analysis. The pharmacokinetic analysis was performed by applying a non-compartment model using the Kinetica 5.0 software (Thermo Scientific, Waltham, MA, USA). All given parameters were obtained by trapezoid area calculation.

For another data set, the system named is CYP3A4. Conditions: cited from earlier work.
Data set [2] in a line: Phase I metabolic stability, human liver microsomes. The class given is in vitro ADME. Conditions: pH 7.4. As for the experimental part:
For the evaluation of phase I metabolic stability, the compound (1 µM) was incubated with 0.5 mg/mL pooled mouse/rat liver microsomes (Xenotech, Kansas City, MO, USA) or human liver microsomes (Corning, NY, USA), 2 mM NADPH and 10 mM MgCl2 at pH 7.4 for 120 min at 37 °C. The metabolic stability of testosterone, verapamil and ketoconazole were determined in parallel to confirm the enzymatic activity of mouse/rat liver microsomes; for human liver microsomes testosterone, diclofenac and propranolol were used. The incubation was stopped after defined time points by precipitation of aliquots of the assay mixture with two volumes of ice-cold acetonitrile containing internal standard (15 nM diphenhydramine). Samples were stored on ice until the end of the incubation and precipitated protein was removed by centrifugation (15 min, 4 °C, 4000× g).
(In general: Liver microsomes are a subcellular fraction often used to study metabolism.)

In data set [3] the test system is mCherry-expressing S. aureus Newman. Description: Zebrafish embryo model of S. aureus yolk infection, antibiotic treatment efficacy. Format: in vivo, Staphylococcus aureus. The procedure: With the aim to study the in vivo efficacy of drugs, 30 hpf zebrafish embryos were infected with 50 CFU of mCherry-expressing S. aureus Newman. Embryos were then left to recover from injection for two hours and subsequently treated with various reference antibiotics. Antibiotic treatment was performed via bath water immersion as well as via microinjection into the yolk (local treatment) and the caudal vein (systemic treatment) to study whether differences in in vivo activity exist between the three administration routes. Survival was assessed daily until 120 hpf. Additionally, the infection was visualized and quantified by means of fluorescence microscopy at 24 h post treatment (hpt). At the end of every experiment, living embryos (and dead embryos, if possible) were homogenized to determine the remaining bacterial count. Five approved antibiotics from different classes were assessed in vivo. The chosen drugs ought to differ in physicochemical properties, such as molecular weight and polarity, in order to detect a pattern between successful administration routes and the physicochemical properties of the drug. Prior to efficacy assessment, drug-mediated toxicity in zebrafish embryos was investigated using the same administration routes (Figure S3). For microinjection, a fixed dose of 20 to 30 mg/kg was used for each antibiotic. The concentration for bath water immersion was based on the minimum inhibitory concentration (MIC) and the maximum tolerated concentration (MTC) of the drug, whereby it is generally recommended to use 50- to 100-fold the antibacterial MIC to see a positive effect.
Pulled glass capillaries for microinjection (Table S2) were prepared using a micropipette puller (P-1000, Sutter Instrument). Dechorionated and anaesthetized embryos were infected with 50 colony-forming units (CFU) of mCherry-expressing S. aureus Newman by microinjection into the yolk sac at 30 hpf. In order to confirm bacterial numbers, an equal volume of bacterial cells was ejected onto Tryptic Soy Agar (TSA) supplemented with 10 µg/mL chloramphenicol before and after the injection. Antibiotic treatment was performed two hours post infection (hpi) via three different administration routes, namely bath water immersion and microinjection into the yolk sac as well as the caudal vein (CV). The infection procedure and treatment of infected embryos are described in details in the supplementary materials (Table S3).
Embryos were transferred individually to microcentrifuge tubes and washed at least three times with sterile PBS. 200 µL of sterile PBS were added and embryos were mechanically homogenized using a micropestle (Carl Roth, Karlsruhe, Germany). 800 µL of sterile PBS were added to reach a final volume of 1 mL. The homogenates were diluted and plated on tryptic soy agar (TSA). CFU counts were determined after 24 h of incubation at 37 °C.
Embryos were placed in a black 96-well plate (Falcon; Thermo Fisher, Dreieich, Germany) and cryo-anaesthetized by submersion into ice water. Images for quantitative fluorescence analysis were acquired using the following equipment: a fluorescence stereo microscope (M205 FA, Leica Microsystems, Wetzlar, Germany) in combination with a fluorescence illuminator (X-Cite, 200DC, Excelitas Technologies, Waltham, MA, USA) and a microscope camera (DFC7000 T, Leica Microsystems). Quantification of fluorescence was performed using Fiji ImageJ version 2.1.0. Fluorescent Integrated Density (FID) was determined by counting the number of pixels with fluorescence intensity greater than the threshold (10) and multiplying the count with its mean intensity. For confocal imaging, embryos were anaesthetized through immersion in tricaine (945 µM, Sigma-Aldrich) and immobilized in 1.2% low-melting agarose in a flat-bottom 96-well plate. Confocal images and time-lapse series were acquired using the Celldiscoverer 7 with LSM 900 (Zeiss) together with the 5×/0.35 Plan-APOCHROMAT objective.
2. […]

Details of data set [4]: method as in unpublished data from GBF. The conditions noted are these: ref unpublished data from GBF; cited from earlier work.

As for `C/C(=C\[C@H](C)CCCCC(=O)O)[C@@H]1O[C@@H]2C=C[C@H]1OC(=O)\C=C/C=C\C=C\[C@H]1O[C@@H]3C[C@H]1O[C@@H](/C=C/C[C@H]1O[C@H](C[C@H](O)[C@H]1C)[C@@H](O)[C@@H](O)/C=C/CC/C=C/C2)[C@@H]3C` [sorangicin A], the “cZ (last measured blood concentration)” value in data set [1] came out at 7.2 ng/mL. In data set [1], the “time plasma levels maintained above the MIC of S. aureus” value is given as “less than 30 min”. The same compound registered an AUC(0-t) in data set [1] (mouse, plasma, iv) of 341 ng·h/mL. The clearance in data set [1] (mouse, plasma, iv, read-out: CL (total clearance) (converted)) was 238 mL/min/kg. Moreover, in data set [1] (mouse, plasma, iv, read-out: Vz), the Vd is 18 L/kg. For the same compound, the C0 in data set [1] (mouse, plasma, iv, read-out: c0 (maximum blood concentration, extrapolated time point zero)) was 1830 ng/mL. Also, in data set [1] (mouse, plasma, iv, read-out: t1/2 (terminal phase) (converted)), the half-life is 52.2 min. For the same compound, the CYP3A4 induction entry in the data set with CYP3A4 was “only moderate CYP3A4 induction”. In data set [2], this compound returned an intrinsic metabolic clearance (microsomal CLint) at 1 µM of 90.4 ± 16.5 µL/min/mg. Besides, the “effect on survival of infected embryos” value was “did not show any protective effect” in data set [3] (bath water immersion 50-100x MIC); “significantly extended the lifespan” in data set [3] (caudal vein microinjection 20-30 mg/kg, 2 hpi); “significantly increased the survival rate” in data set [3] (yolk microinjection 20-30 mg/kg, 2 hpi). For the same compound, the “difference between treated and untreated embryos” value in data set [3] (bath water supplemented with 1000x MIC) is “no difference”. Besides, the “bacterial fluorescence (FID) at 24 hpt” value is “Bacterial fluorescence was suppressed” in data set [3] (caudal vein microinjection) and “reduced bacterial burden” in data set [3] (yolk microinjection). In addition, the “embryos succumbed to the infection” value in data set [3] (caudal vein microinjection 2 hpi, 50 CFU yolk infection) was 75%. Also, the bacterial numbers entry in data set [3] (caudal vein microinjection, succumbed embryos) was “exceeding 10^4 CFU/embryo”. For the same compound, the “bacteria recovered (CFU plating) at 120 hpf” value in data set [3] (yolk microinjection) is “complete eradication of bacteria”. Also, in data set [4], the “outcome in experimental infection models in rats” value was “successful”.

In general, AUC(0-t) refers to the area under the concentration-time curve up to a stated or last time point. High values mean more exposure, low ones less exposure. As usually defined, the clearance is the rate of elimination divided by the concentration. As usually defined, the microsomal CLint is the rate of metabolic loss divided by the concentration. The low end stands for slow turnover, the high end for rapid turnover.

(Values after article PMC10454396 (International Journal of Molecular Sciences, 2023).)
